Source: patent US12522587B2, “Cancer treatments targeting cancer stem cells” (Remedy Plan, Inc., priority 2018, dated 2026)

Tests used:
[1] = tested on: MiaPaca-2; test: Growth inhibition of cancer cell lines; format: cell-based; conditions: Homo sapiens, MIA PaCa-2; MiaPaca-2, pancreatic carcinoma; 50% inhibition of growth
Source text: (§1) We tested the ability of compound I-1 to inhibit the growth of 12 additional cell lines, derived from a variety of different types of human cancer.

[2] = tested on: Colo205; test: Growth inhibition of cancer cell lines; format: cell-based; conditions: Homo sapiens, COLO 205; Colo205, Dukes' type D, colorectal adenocarcinoma; 50% inhibition of growth
Source text: as §1

[3] = tested on: IGROV-1; test: Growth inhibition of cancer cell lines; format: cell-based; conditions: Homo sapiens; IGROV-1, ovarian adenocarcinoma; 50% inhibition of growth
Source text: as §1

[4] = tested on: A498; test: Growth inhibition of cancer cell lines; format: cell-based; conditions: Homo sapiens; A498, kidney carcinoma; 50% inhibition of growth
Source text: as §1

[5] = Pharmacokinetic profile after oral gavage in mice; format: in vivo; conditions: male, CD1, mouse, single PO 100 mg/kg, plasma over 24 hours
Experimental: The pharmacokinetic profile of compound I-1 was determined after oral gavage of 100 mg/kg in male CD1 mice (n=3), using freshly prepared formulations. Approximately 0.025 mL of blood were collected from the dorsal metatarsal vein at 15 min, 30 min, and 1, 2, 4, 6, 8, and 24 hr post dosing. Plasma concentrations of the drug were analyzed by LC/MS/MS method.
Following a single PO (oral) injection in mice at 100 mg/kg, the concentration of compound I-1 was measured in the plasma over 24 hours. The half life was approximately 6 hours.

[6] = tested on: Primary CD-1 mouse hepatocytes; test: Hepatocyte toxicity assay (CellTiter Glo); format: cell-based; conditions: 10 μM daily for 4 days, FIG. 4
Experimental: Fresh Primary CD-1 mouse hepatocytes were obtained from XenoTech in 96-well plates the day after perfusion. After 24 hrs of recovery at 37° C. using OptiCulture Hepatocyte Media, medium was replaced containing either DMSO alone (no drug treatment) or 10 μM of compound I-1 daily for 4 days. Cell viability was measured using CellTiter Glo 2.0 Kit from PROMEGA, following manufacturer instructions. Luminescence was measured using a SynergyHTX plate reader with a 1 sec integration.
Normal, healthy mouse hepatocytes were treated with DMSO alone (no drug treatment) or 10 µM of compound I-1 for 4 days. Cell health was measured using CELLTITER GLO reagent, which provided a luminescence readout as a measurement of total ATP concentration.

[7] = tested on: oct4; test: RT-qPCR of oct4 RNA in AGS cells; format: cell-based, human; conditions: 10 μM, 4 days, FIG. 2
Experimental: Approximately 2.5×10^5 AGS cells were treated for 4 days with DMSO alone (no drug treatment) or 10 μM compound I-1 in DMSO. Cells were lysed and RNA was extracted using Zymo's Quick RNA-Microprep following manufacturer instructions. 100 ng of RNA were reverse transcribed using MuLV reverse transcriptase (New England Biolabs, USA). qPCR was performed using 2 ul of cDNA and Luna Universal qPCR Master Mix from NEB in a Stratagene Mx3005P.
AGS gastric cancer cells were treated with either DMSO alone (no drug treatment) or compound I-1 at […] for 4 days. RNA was isolated and oct4 RNA levels were measured by RT-qPCR.

[8] = tested on: MM.1R; test: Growth inhibition of additional cancer cell lines; format: cell-based; conditions: Homo sapiens, Hematopoietic-B-cell myeloma, 50% inhibition of growth
Source text: (§2) We tested the ability of compound I-1 to inhibit the growth of 11 additional cell lines, derived from a variety of different types of human cancer.

[9] = tested on: NALM-6; test: Growth inhibition of additional cancer cell lines; format: cell-based; conditions: Homo sapiens; NALM-6, Heme (B-cell precursor leukemia, ALL); 50% inhibition of growth
Source text: as §2

[10] = tested on: Ramos (RA 1); test: Growth inhibition of additional cancer cell lines; format: cell-based; conditions: Homo sapiens, Hematopoietic-Burkitt's B-cell lymphoma, 50% inhibition of growth
Source text: as §2

[11] = tested on: HepG2; test: Growth inhibition of additional cancer cell lines; format: cell-based; conditions: Homo sapiens; HepG2, Liver; 50% inhibition of growth
Source text: as §2

[12] = tested on: NCI-H520; test: Growth inhibition of additional cancer cell lines; format: cell-based; conditions: Homo sapiens; NCI-H520, NSCLC; 50% inhibition of growth
Source text: as §2

[13] = tested on: Thp1; test: Growth inhibition of additional cancer cell lines; format: cell-based; conditions: Homo sapiens, THP-1; Thp1, Heme (acute monocytic leukemia); 50% inhibition of growth
Source text: as §2

[14] = tested on: RL95-2; test: Growth inhibition of additional cancer cell lines; format: cell-based; conditions: Homo sapiens; RL95-2, Uterus/endometrium; 50% inhibition of growth
Source text: as §2

[15] = tested on: SW620; test: Growth inhibition of additional cancer cell lines; format: cell-based; conditions: Homo sapiens, SW-620; SW620, Colon; 50% inhibition of growth
Source text: as §2

[16] = tested on: SU-DHL-10; test: Growth inhibition of additional cancer cell lines; format: cell-based; conditions: Homo sapiens, SU-DHL10; SU-DHL-10, Hematopoietic-large B-cell lymphoma; 50% inhibition of growth
Source text: as §2

[17] = tested on: SR; test: Growth inhibition of additional cancer cell lines; format: cell-based; conditions: Homo sapiens, Heme (large cell immunoblastic lymphoma-unknown B or T cell origin), 50% inhibition of growth
Source text: as §2

[18] = tested on: Raji; test: Growth inhibition of additional cancer cell lines; format: cell-based; conditions: Homo sapiens, Heme (Burkitt's lymphoma), 50% inhibition of growth
Source text: as §2

[19] = tested on: AGS cells; test: Kinetic cell viability with AGS cells (RealTime Glo MT); format: cell-based, human
Experimental: Approximately 50,000 AGS cells were seeded per well of a 96-well plate in media containing NanoLuc Luciferase and MT Cell Viability Substrate provided on the RealTime Glo MT Cell Viability Assay Kit from PROMEGA. Four hours after plating, cells were treated with DMSO alone (no drug treatment) or decreasing concentrations of a compound of the disclosure to achieve final concentrations of 20, 10, 5, and 2.5 μM. Luminescence Units (RLU) were measured every 16-20 hours using a SynergyHTX plate reader with a 30 msec integration (see FIG. 1).
Approximately 50,000 AGS cells were seeded per well of a 96-well plate in media containing NanoLuc Luciferase and MT Cell Viability Substrate provided on the RealTime Glo MT Cell Viability Assay Kit from PROMEGA. Four hours after plating, cells were treated with DMSO alone (no drug treatment) or decreasing concentrations of compound I-1 to achieve final concentrations of 20, 10, 5, and 2.5 μM. Luminescence Units (RLU) were measured every 16-20 hrs using a SynergyHTX plate reader with a 30 msec integration.
AGS gastric cancer cells were treated with either DMSO alone (no drug treatment) or various concentrations of compound I-1 (including 2.5 µM, 5 µM, 10 µM, and 20 µM) for 4 days. Cell health and replication were measured using REALTIME-GLO MT Cell Viability Assay, which provided a luminescence readout as a measurement of cell number and health.

CCC(=O)N1CCc2cc(-c3ccc(C(=O)NCc4cccnc4)cc3)ccc21 [Compound I-1]
IC50 [1]: 3.38 µM
IC50 [2]: > 10 µM
IC50 [3]: 4.54 µM
IC50 [4]: > 10 µM
half-life [5]: ~6 h
toxicity to healthy hepatocytes [6]: no toxicity
oct4 expression in gastric cancer cells [7]: decreased
IC50 [8]: 5.44 µM
IC50 [9]: 0.675 µM
IC50 [10]: 3.41 µM
IC50 [11]: 4.02 µM
IC50 [12]: 3.66 µM
IC50 [13]: 5.17 µM
IC50 [14]: 2.5 µM
IC50 [15]: 2.79 µM
IC50 [16]: 2.61 µM
IC50 [17]: 0.489 µM
IC50 [18]: 2.52 µM
growth of gastric cancer cells ([19]; AGS cells, 2.5-20 μM, 4 days, FIG. 5): inhibited growth
populations of embryonic-like gastric cell populations in gastric cancer ([19]; AGS cells, 20, 10, 5 and 2.5 μM, FIG. 1): depleted
